According to ChEMBL document CHEMBL1201862, “PubChem BioAssay data set” (2004):
Calls of active or inactive are those of the source.

Assays:
[1] = Luminescence Cell-Based Dose Response HTS to Identify Activators of Luciferase Translation or Activity in H4 […] Cells. [Related pubchem assays: 1829 (Project Summary), 1814 (Primary HTS)]; assay type: functional
[2] = test system: H4; assay: Luminescence Cell-Based Dose Response HTS to Identify Activators of 5'UTR Stem-Loop Driven Prion Protein mRNA Translation in H4 Neuroglioblastoma Cells. [Related pubchem assays: 1829 (Project Summary), 1814 (Primary HTS)]; assay type: functional; details: Homo sapiens
[3] = target: T1, Ubiquitin-conjugating enzyme E2 N (Homo sapiens, UniProt P61088); assay type: functional;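 further: Dose-response confirmation in a TR-FRET assay detecting UBC13-driven polyubiquitin chain formation, inhibition measured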
T1 sequence (P61088 whole entry): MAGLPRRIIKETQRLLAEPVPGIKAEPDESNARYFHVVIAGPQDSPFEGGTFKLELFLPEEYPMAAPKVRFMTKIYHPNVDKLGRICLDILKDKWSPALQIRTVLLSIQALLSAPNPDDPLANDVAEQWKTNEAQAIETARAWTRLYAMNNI

[4] = target: FAD-linked sulfhydryl oxidase ALR (Homo sapiens, UniProt P55789); assay: inhibitors of human ALR sulfhydryl oxidase, dose response, biochemical, H2O2 detection, luminescence, cherry-pick (AID 493248)
[5] = MDA-MB-231 cell growth inhibition, dose response, cytotoxicity control for RAD54 inhibitor project, CellTiter-Glo luminescence, cherry-pick (AID 651692); assay type: functional, cell-based
[6] = target: T2, DNA repair and recombination protein RAD54-like (Homo sapiens, UniProt Q92698); assay: inhibitors of human RAD54 branch migration, confirmation, biochemical, fluorescence, cherry-picked samples, dose series (AID 651657); assay type: functional
T2 sequence (Q92698 whole entry): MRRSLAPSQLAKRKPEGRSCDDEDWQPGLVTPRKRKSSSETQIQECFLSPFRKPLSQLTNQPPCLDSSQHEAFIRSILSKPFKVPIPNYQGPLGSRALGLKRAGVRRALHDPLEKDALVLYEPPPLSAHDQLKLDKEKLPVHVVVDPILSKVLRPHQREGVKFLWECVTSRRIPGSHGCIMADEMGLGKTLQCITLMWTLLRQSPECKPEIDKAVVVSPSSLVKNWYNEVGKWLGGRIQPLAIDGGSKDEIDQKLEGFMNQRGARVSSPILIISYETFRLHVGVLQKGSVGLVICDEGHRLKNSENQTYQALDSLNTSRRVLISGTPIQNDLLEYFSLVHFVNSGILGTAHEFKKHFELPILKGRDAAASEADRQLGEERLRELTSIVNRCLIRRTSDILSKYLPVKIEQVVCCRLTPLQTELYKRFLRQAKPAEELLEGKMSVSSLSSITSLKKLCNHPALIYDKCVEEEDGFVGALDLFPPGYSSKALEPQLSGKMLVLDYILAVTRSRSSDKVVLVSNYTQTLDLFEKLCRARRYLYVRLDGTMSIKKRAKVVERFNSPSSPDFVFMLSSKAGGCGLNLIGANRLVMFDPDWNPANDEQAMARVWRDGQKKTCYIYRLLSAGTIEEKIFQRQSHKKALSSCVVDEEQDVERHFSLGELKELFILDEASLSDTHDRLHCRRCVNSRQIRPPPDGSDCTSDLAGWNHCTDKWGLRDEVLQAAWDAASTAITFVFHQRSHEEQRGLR

[7] = HepG2 cell cytotoxicity, dose response, cytotoxicity control, ATP luminescence, cherry-pick, set 6 (AID 1053125); assay type: functional, cell-based
[8] = cells; details: A549
[9] = cells
[10] = cells; details: HEK293
[11] = ADAM10 inhibitors, peptide cleavage, dose response, biochemical, QFRET (AID 743254);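 further: ADAM10 enzyme with the DM2 quenched FRET peptide as substrate; EDANS fluorescence gain as the protease cuts the substrate; inhibitor potency against ADAM10 proteolytic activity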
[12] = target: Disintegrin and metalloproteinase domain-containing protein 17 (Homo sapiens, UniProt P78536); assay: ADAM17 protease inhibitors, dose response, counter-screen for ADAM10 exosite inhibitor project, biochemical, quenched FRET substrate (AID 743253)
[13] = target: T3, NAD-dependent protein deacylase sirtuin-5, mitochondrial (Homo sapiens, UniProt Q9NXA8); assay: SIRT5 desuccinylase inhibitors, dose response, biochemical, fluorescence imaging, cherry-pick, set 5 (AID 720591);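 further: desuccinylation of succinyl peptide AMC substrate read as fluorescence after trypsin release; potency of inhibitors that lower fluorescence and may act on trypsin instead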
[14] = Luminescence Cell-Based Dose Confirmation HTS to Identify Activators of 5'UTR Stem-Loop Driven Alpha-Synuclein mRNA Translation in H4 Neuroglioblastoma Cells. [Related pubchem assays: 1829 (Project Summary), 1814 (Primary HTS)]; assay type: functional
[15] = cells; assay type: functional, cell-based
[16] = cells; assay type: functional, cell-based; remark: listed apart in the source
[17] = HepG2 cell cytotoxicity, dose response, cytotoxicity control, ATP luminescence, cherry-pick, activator set 2 (AID 1053143); assay type: functional, cell-based
[18] = target: Oxysterols receptor LXR-beta (Homo sapiens, UniProt P55055); assay type: functional, cell-based;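 further: agonist activity at LXR measured by a cell-based luminescence readout across a dose range, run as a counterscreen for daf-12 agonists; HEK293 cells with Gal4-LXR fusion and GAL4-driven luciferase reporter; potency for activation of Gal4-LXR reporter so compounds are agonists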
[19] = target: Major prion protein (Homo sapiens, UniProt P04156); assay type: functional, cell-based
[20] = cells; remark: listed apart in the source
[21] = inhibitors of firefly luciferase expression or activity, dose response, H4 neuroglioma cells, luminescence (AID 1990); assay type: functional, cell-based
[22] = test system: BJ; assay: cytotoxicity toward BJ-TERT fibroblasts, dose response, cell-based, RAS-independent, luminescence (AID 1933); assay type: functional; details: Homo sapiens
[23] = Luminescence Cell-Based Dose Response HTS to Identify Inhibitors of 5'UTR Stem-Loop Driven Prion Protein mRNA Translation in H4 Neuroglioblastoma Cells. [Related pubchem assays: 1827 (Project Summary), 1813 (Primary HTS)]; assay type: functional
[24] = inhibitors of SNCA 5'UTR-driven reporter translation, confirmation, H4 neuroglioma cells, luminescence (AID 1988); assay type: functional, cell-based
[25] = test system: BJ; assay: cells; assay type: functional, cell-based; details: Homo sapiens
[26] = target: Large T antigen (Simian virus 40, UniProt P03070); assay type: functional, Betapolyomavirus macacae;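 further: Confirmatory-stage PubChem screen for compounds that inhibit SV40 T antigen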
[27] = target: Luciferin 4-monooxygenase (Photinus pyralis, UniProt P08659); assay: firefly luciferase enzyme inhibitors, dose response, biochemical, luminescence (AID 1891)
[28] = Luminescence Cell-Based Dose Confirmation HTS to Identify Inhibitors of Platelet Dense Granule Release. [Related pubchem assays: 1663 (Primary HTS), 1678 (Summary of Project)]; assay type: functional
[29] = test system: BJ; assay: cytotoxicity toward BJ-TERT-LT-ST fibroblasts, dose response, cell-based, RAS-independent, luminescence (AID 1935); assay type: functional; details: Homo sapiens;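 further: BJ fibroblasts immortalized with TERT plus LT and ST oncogenes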
[30] = cytotoxicity toward DRD oncogenic fibroblasts, dose response, cell-based, non-viral oncogenic, luminescence (AID 1934); assay type: functional; details: Homo sapiens
[31] = target: Nonstructural protein 1 (Influenza A virus, UniProt Q194T2); assay type: functional, Influenza A virus (A/California/07/2009(H1N1))
[32] = test system: BJ; assay: cytotoxicity toward Ras-transformed BJeLR fibroblasts, dose response, cell-based, alamar blue fluorescence, cherrypicked samples (AID 2631); assay type: functional; details: Homo sapiens;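 further: confirmatory dose-response assay in RAS-dependent BJ fibroblasts engineered with TERT, LT and ST, with cytotoxicity read by fluorescence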
[33] = target: T4, Rac GTPase-activating protein 1 (Homo sapiens, UniProt Q9H0H5); assay: MgcRacGAP GTPase-activating activity inhibitors, confirmation, biochemical, ADP Hunter fluorescence, primary and confirmatory (AID 624330); assay type: functional
T4 sequence (Q9H0H5 whole entry): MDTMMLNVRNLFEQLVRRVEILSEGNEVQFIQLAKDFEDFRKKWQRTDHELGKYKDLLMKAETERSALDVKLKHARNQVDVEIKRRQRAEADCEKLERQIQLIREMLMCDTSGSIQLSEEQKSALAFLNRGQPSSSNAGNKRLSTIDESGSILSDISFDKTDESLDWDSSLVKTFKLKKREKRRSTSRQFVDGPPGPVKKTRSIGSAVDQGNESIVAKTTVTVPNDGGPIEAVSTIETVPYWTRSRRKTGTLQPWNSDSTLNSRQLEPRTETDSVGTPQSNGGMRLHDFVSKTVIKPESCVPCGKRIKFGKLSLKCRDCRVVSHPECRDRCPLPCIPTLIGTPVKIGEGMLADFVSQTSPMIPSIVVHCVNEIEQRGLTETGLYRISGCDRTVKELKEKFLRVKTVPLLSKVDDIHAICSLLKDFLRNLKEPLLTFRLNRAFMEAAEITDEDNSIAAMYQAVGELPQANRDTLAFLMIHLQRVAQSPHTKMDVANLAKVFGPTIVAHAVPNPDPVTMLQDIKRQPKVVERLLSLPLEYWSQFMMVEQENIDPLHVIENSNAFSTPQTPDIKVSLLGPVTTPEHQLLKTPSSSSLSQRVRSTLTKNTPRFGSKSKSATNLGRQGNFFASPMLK

[34] = HEK293T cytotoxicity, dose response, cytotoxicity control for miR-122 modulator project, cell-based, inhibitor set, cherry-pick, set 2 (AID 720697); assay type: functional
[35] = HEK293T cytotoxicity, dose response, cytotoxicity control for miR-122 modulator project, cell-based, activator set, cherry-pick (AID 720690); assay type: functional;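 further: HEK293T human cells scored for general mammalian cytotoxicity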
[36] = target: T3, NAD-dependent protein deacylase sirtuin-5, mitochondrial; assay: SIRT5 deacylase inhibitors, dose response, biochemical, fluorescence imaging, cherry-pick, set 6 (AID 720597)
[37] = MITF Orthogonal Assay: SK-MEL-5 CTG Assay Measured in Cell-Based System Using Plate Reader - 2084-02_Inhibitor_Dose_DryPowder_Activity_Set7.; assay type: functional
[38] = MITF: Counter assay: A375 proliferation Measured in Cell-Based System Using Plate Reader - 2084-03_Inhibitor_Dose_DryPowder_Activity_Set8.; assay type: functional; details: A-375
[39] = TRPM1 promoter luciferase reporter signal decrease, dose response, MITF inhibitor project, cell-based, SK-MEL-5, dry powder, set 8 (AID 624430); assay type: functional
[40] = A375 melanoma cell viability loss, dose response, counter-screen for MITF inhibitor project, CellTiter-Glo luminescence, dry powder, set 4 (AID 624364); assay type: functional, cell-based; details: A-375;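 further: A375 melanoma cells are MITF independent so this is a counter screen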
[41] = A375 melanoma cell cytotoxicity, dose response, counter-screen for MITF inhibitor project, CellTiter-Glo luminescence, dry powder, set 2 (AID 624489); assay type: functional, cell-based; details: A-375;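 further: actives are compounds lowering A375 viability meaning general cytotoxicity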
[42] = target: Protein disulfide-isomerase (Homo sapiens, UniProt P07237); assay: PDI inhibitors, insulin turbidity readout, confirmation, biochemical, dry powder samples, set 2 (AID 652146)
[43] = target: NS3 (Hepatitis C virus, UniProt A3EZJ3); assay: HCV NS3 helicase inhibitor potency, dose response, biochemical, fluorescence polarization, ChemBridge library (AID 743264)
[44] = inhibitors of non-replicating M. tuberculosis, dose response, luciferase, dry powder (AID 651619); assay type: functional; details: Mycobacterium tuberculosis
[45] = inhibitors of non-replicating M. tuberculosis, dose response, luciferase, dry powder (AID 651620); assay type: functional; details: Mycobacterium tuberculosis
[46] = target: Potassium channel subfamily K member 9 (Homo sapiens, UniProt Q9NPC2); assay: TASK3 (KCNK9) channel inhibitors, thallium flux, SAR follow-up, selectivity assay for TASK1 inhibitor project, cell-based, FluxOR thallium flux, concentration-response (AID 652211); assay type: functional;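 further: potency is for inhibitors of the channel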
[47] = target: Potassium channel subfamily K member 3 (Homo sapiens, UniProt O14649); assay: TASK1 (KCNK3) potassium channel inhibitors, SAR follow-up, CHO cells, FluxOR thallium flux (AID 652212); assay type: functional

Cc1cc2oc3cc(NCCC4CCCN4C)ccc3c(=O)c2cc1C (centres undefined)
EC50 [1]: 0.113 µM (active) | EC50 [2]: 45.4 µM (active) | IC50 [3]: > 20 µM (inactive) | AC50 [4]: 0.287 µM (active) | AC50 [5]: 22.6 µM (active) | AC50 [6]: 13.3 µM (active) | AC50 [7]: 11.2 µM (active) | AC50 [8]: 9.92 µM (active) | AC50 [9]: 35 µM (active) | AC50 [10]: 12.4 µM (active)

COc1cc(OC)c(N(C)S(=O)(=O)c2cccc(C(=O)OCC(=O)c3c[nH]c4ccccc34)c2)cc1Cl
IC50 [11]: > 69.5 µM (inactive) | IC50 [12]: > 69.5 µM (inactive)

COc1ccc(C(C(=O)NC(C)(C)C)N(Cc2ccco2)C(=O)CCC(=O)Nc2cc(C)on2)cc1 (centres undefined)
AC50 [13]: 23.5 µM (active)

O=C(NCCc1ccccc1)c1cc(-c2ccco2)on1
EC50 [14]: 3.89 µM (active) | EC50 [1]: 0.116 µM (active) | EC50 [15]: 11.8 µM (active) | EC50 [2]: > 120 µM (not active) | EC50 [16]: 339 µM (active) | AC50 [17]: 26 µM (active) | EC50 [18]: > 67.5 µM (inactive)

Cc1nc(SCC(=O)Nc2cc(C(N)=O)cc(C(N)=O)c2)c2c(C)c(C)sc2n1
IC50 [19]: 11.6 µM (inactive) | IC50 [20]: > 138 µM (inactive)

Oc1ccc(/C=N/Nc2nccnc2Cl)c(O)c1
EC50 [21]: 7.09 µM (active) | EC50 [22]: 10.7 µM (active) | EC50 [23]: 6.33 µM (active) | EC50 [24]: 3.7 µM (active) | EC50 [25]: 5.07 µM (active) | IC50 [26]: 16.7 µM (active) | EC50 [27]: 1.05 µM (active) | EC50 [28]: 0.254 µM (active) | EC50 [29]: 10.9 µM (active) | EC50 [30]: 13.4 µM (active) | IC50 [31]: 9.11 µM (active) | EC50 [32]: 6.12 µM (active) | IC50 [33]: 12.7 µM (active) | AC50 [34]: 3.85 µM (active) | AC50 [35]: 16.5 µM (active)

COCC(=O)NC[C@@H]1N[C@@H](CO)[C@H]1c1ccc(C2=CCCCC2)cc1
AC50 [36]: > 30 µM (inactive)

CCN1CCN(C2=C(Nc3ccc(I)cc3)C(=O)c3ccccc3C2=O)CC1
AC50 [37]: 7.26 µM (active) | AC50 [38]: 16.8 µM (active) | AC50 [39]: 1.48 µM (active)

CC(=O)N(C)C1=C(N2CCN(C)CC2)C(=O)c2ccccc2C1=O
AC50 [40]: 12.1 µM (active) | AC50 [41]: 5.65 µM (active)

O=C(Nc1ccccc1)C1(CCOc2ccccc2)CCN(Cc2ccc(O)c(Cl)c2)CC1
AC50 [42]: 15 µM (active)

O=C1C=CC(=O)N1c1ccc(Br)cc1[N+](=O)[O-]
IC50 [43]: 22.4 µM (inactive)

[N-]=[N+]=NCCOCCNC(=O)CCCOc1ccc(-c2nnc(SCc3ccccn3)o2)cc1
IC90 [44]: 31 µM (active) | IC90 [45]: 31 µM (active)

CCOc1ccccc1NC(=O)c1cccc(NC(=O)CC2CCCCC2)c1
IC50 [46]: 1.92 µM (active) | IC50 [47]: 0.217 µM (active)
